ChEMBL document CHEMBL1126157, “QSAR analyses of the substituted indanone and benzylpiperidine rings of a series of indanone-benzylpiperidine inhibitors of acetylcholinesterase” (J Med Chem, 1992)

Key:
Acetylcholinesterase [1] = target: T1, Acetylcholinesterase (Homo sapiens, UniProt P22303)
Acetylcholinesterase [2] = target: T1, Acetylcholinesterase; remark: listed apart in the source
Description: Inhibition of acetylcholinesterase.

Acetylcholinesterase [3] = target: T1, Acetylcholinesterase; remark: listed apart in the source
Acetylcholinesterase [4] = target: T1, Acetylcholinesterase; remark: listed apart in the source
Description: Inhibition of acetylcholinesterase.

T1 sequence (P22303 whole entry): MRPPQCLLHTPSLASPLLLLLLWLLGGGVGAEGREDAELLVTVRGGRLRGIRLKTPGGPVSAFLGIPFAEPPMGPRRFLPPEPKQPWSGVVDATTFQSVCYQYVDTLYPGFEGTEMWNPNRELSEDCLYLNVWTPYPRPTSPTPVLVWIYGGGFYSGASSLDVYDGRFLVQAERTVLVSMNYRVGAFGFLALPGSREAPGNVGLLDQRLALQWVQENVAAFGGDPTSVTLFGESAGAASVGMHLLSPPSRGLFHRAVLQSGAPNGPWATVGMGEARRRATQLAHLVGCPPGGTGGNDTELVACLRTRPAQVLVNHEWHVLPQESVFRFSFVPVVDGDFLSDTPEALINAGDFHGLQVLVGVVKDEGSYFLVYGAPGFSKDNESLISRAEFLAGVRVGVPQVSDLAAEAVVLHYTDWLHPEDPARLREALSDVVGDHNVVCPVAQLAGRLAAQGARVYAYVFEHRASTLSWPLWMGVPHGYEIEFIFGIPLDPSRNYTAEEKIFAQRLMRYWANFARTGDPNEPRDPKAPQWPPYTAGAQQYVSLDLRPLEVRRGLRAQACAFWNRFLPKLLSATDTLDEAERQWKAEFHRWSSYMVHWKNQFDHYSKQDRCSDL

## COc1cc2c(c(OC)c1)C(=O)C(C)C2 (stereo not given)
Acetylcholinesterase [1]
  IC50: 380 nM
Acetylcholinesterase [2]
  IC50: 25.1 nM

## COc1cc2c(cc1OC(C)C)CC(C)C2=O (stereo not given)
Acetylcholinesterase [1]
  IC50: 380 nM
Acetylcholinesterase [2]
  IC50: 8.91 nM

## COc1cc2c(cc1OC)C(=O)C(C)C2 (stereo not given)
Acetylcholinesterase [1]
  IC50: 380 nM
Acetylcholinesterase [2]
  IC50: 5.25 nM

## CC1Cc2ccccc2C1=O (stereo not given)
Acetylcholinesterase [1]
  IC50: 380 nM
Acetylcholinesterase [2]
  IC50: 148 nM

## COc1ccc2c(c1OC)CC(C)C2=O (stereo not given)
Acetylcholinesterase [1]
  IC50: 380 nM
Acetylcholinesterase [2]
  IC50: 20 nM

## CC1Cc2ccc(F)cc2C1=O (stereo not given)
Acetylcholinesterase [1]
  IC50: 380 nM
Acetylcholinesterase [2]
  IC50: 200 nM

## COc1cc2c(cc1O)CC(C)C2=O (stereo not given)
Acetylcholinesterase [1]
  IC50: 380 nM
Acetylcholinesterase [2]
  IC50: 380 nM

## COc1cc(C)cc(OC)c1OC
Acetylcholinesterase [3]
  IC50: 4900 nM
Acetylcholinesterase [4]
  IC50: 4900 nM

## Cc1ccc2c(c1)C(=O)C(C)C2 (stereo not given)
Acetylcholinesterase [1]
  IC50: 380 nM
Acetylcholinesterase [2]
  IC50: 69.2 nM

## CCOc1cc2c(cc1OCC)C(=O)C(C)C2 (stereo not given)
Acetylcholinesterase [1]
  IC50: 380 nM
Acetylcholinesterase [2]
  IC50: 6.31 nM

## COc1ccc(C)cc1OC
Acetylcholinesterase [3]
  IC50: 4900 nM
Acetylcholinesterase [4]
  IC50: 3980 nM

## Cc1cccc(F)c1
Acetylcholinesterase [3]
  IC50: 4900 nM
Acetylcholinesterase [4]
  IC50: 1 nM

## Cc1ccc(F)cc1
Acetylcholinesterase [3]
  IC50: 4900 nM
Acetylcholinesterase [4]
  IC50: 9.55 nM

## COc1ccc2c(c1)C(=O)C(C)C2 (stereo not given)
Acetylcholinesterase [1]
  IC50: 380 nM
Acetylcholinesterase [2]
  IC50: 81.3 nM

## COc1cc2c(cc1O)C(=O)C(C)C2 (stereo not given)
Acetylcholinesterase [1]
  IC50: 380 nM
Acetylcholinesterase [2]
  IC50: 1.32 nM

## COc1cccc(C)c1
Acetylcholinesterase [3]
  IC50: 4900 nM
Acetylcholinesterase [4]
  IC50: 219 nM

## COc1ccc2c(c1OC)C(=O)C(C)C2 (stereo not given)
Acetylcholinesterase [1]
  IC50: 380 nM
Acetylcholinesterase [2]
  IC50: 87.1 nM

## Cc1ccccc1F
Acetylcholinesterase [3]
  IC50: 4900 nM
Acetylcholinesterase [4]
  IC50: 9.55 nM

## Cc1cccc2c1CC(C)C2=O (stereo not given)
Acetylcholinesterase [1]
  IC50: 380 nM
Acetylcholinesterase [2]
  IC50: 7.08 nM

## COc1cccc2c1CC(C)C2=O (stereo not given)
Acetylcholinesterase [1]
  IC50: 380 nM
Acetylcholinesterase [2]
  IC50: 12 nM

## CC1Cc2cc3c(cc2C1=O)OCO3 (stereo not given)
Acetylcholinesterase [1]
  IC50: 380 nM
Acetylcholinesterase [2]
  IC50: 22.9 nM

## COc1ccc(OC)c2c1CC(C)C2=O (stereo not given)
Acetylcholinesterase [1]
  IC50: 380 nM
Acetylcholinesterase [2]
  IC50: 36.3 nM

## COc1cc2c(c(OC)c1OC)C(=O)C(C)C2 (stereo not given)
Acetylcholinesterase [1]
  IC50: 380 nM
Acetylcholinesterase [2]
  IC50: 13.2 nM

## Cc1ccc([N+](=O)[O-])cc1 [4-NITROTOLUENE]
Acetylcholinesterase [3]
  IC50: 4900 nM
Acetylcholinesterase [4]
  IC50: 100 nM

## Cc1cccc(C)c1 [M-XYLENE]
Acetylcholinesterase [3]
  IC50: 4900 nM
Acetylcholinesterase [4]
  IC50: 2 nM

## Cc1cccc(O)c1 [METACRESOL]
Acetylcholinesterase [3]
  IC50: 4900 nM
Acetylcholinesterase [4]
  IC50: 45.7 nM

## Cc1ccccc1C [O-XYLENE]
Acetylcholinesterase [3]
  IC50: 4900 nM
Acetylcholinesterase [4]
  IC50: 10 nM

## Cc1ccc(C)cc1 [P-XYLENE]
Acetylcholinesterase [3]
  IC50: 4900 nM
Acetylcholinesterase [4]
  IC50: 39.8 nM

## Cc1ccccc1 [TOLUENE]
Acetylcholinesterase [3]
  IC50: 4900 nM
Acetylcholinesterase [4]
  IC50: 5.25 nM

## Cc1ccc(O)cc1 [p-CRESOL]
Acetylcholinesterase [3]
  IC50: 4900 nM
Acetylcholinesterase [4]
  IC50: 1.82 nM
